According to patent US20060183122A1, “Fanc gene mutations in cancer” (priority 2002, published 2006):
Entries after “also recorded” stand apart in the source; their conditions may differ.

Legend:
Assay type in all cases: cell-based
BxPC3 = assay: G2/M cell cycle arrest after MMC treatment (flow cytometry); conditions: BxPC3 (control line); MMC 2 hours, analyzed 48 hours later; concentrations as high as
Procedure: (§1) Cells were cultured in 25 cm^2 flasks and treated with MMC for two hours. Cells were washed with PBS and incubated with normal tissue culture medium for 48 hours.
(§2) Cells were obtained by trypsinization and resuspended in 3.7% paraformaldehyde in PBS, stained with Hoechst 33258 (Sigma), incubated at 4° C. for 10 min and analyzed using a flow cytometer. A “G2/M arrest” was defined as a twofold increase of the percentage of cells in G2/M, as compared to untreated cells.
(§3) The methods used to investigate cell “survival” upon treatment with MMC and cisplatin sum the effects of cell death, slow growth and the occurrence of a cell cycle arrest. To determine the potential contribution of an arrest, we analyzed cell cycle distributions of DNA content after MMC treatment. Six pancreatic cancer cell lines (BxPC3, MiaPaCa2, Su86.86, PL11, Hs766T and CAPAN1) and one HNSCC cell line (FaDu) were analyzed 48 hours after MMC treatment for 2 hours; a G2/M arrest was defined as a twofold increase of the fraction of cells containing 4N DNA content, as compared to untreated cells (FIG. 4). Hs766T arrested in G2/M at a MMC concentration of 100 nM, PL11 at 100 nM, CAPAN1 at 200 nM and FaDu at 500 nM, whereas control pancreatic cancer cell lines MiaPaCa2, Su86.86 and BxPC3 […] at MMC concentrations as high as 2 μM.

CAPAN1 [1] = assay: as above; conditions: MMC 2 hours, analyzed 48 hours later, arrest = twofold increase of 4N fraction vs untreated
Procedure: as §1, §2, §3

FaDu = assay: as above; conditions: MMC 2 hours, analyzed 48 hours later, arrest = twofold increase of 4N fraction vs untreated
Procedure: as §1, §2, §3

Hs766T [2] = assay: as above; conditions: MMC 2 hours, analyzed 48 hours later, arrest = twofold increase of 4N fraction vs untreated
Procedure: as §1, §2, §3

MiaPaCa2 = assay: as above; conditions: MiaPaCa2 (control line); MMC 2 hours, analyzed 48 hours later; concentrations as high as
Procedure: as §1, §2, §3

PL11 = assay: as above; conditions: MMC 2 hours, analyzed 48 hours later, arrest = twofold increase of 4N fraction vs untreated
Procedure: as §1, §2, §3

Su86.86 [3] = assay: as above; conditions: Su86.86 (control line); MMC 2 hours, analyzed 48 hours later; concentrations as high as
Procedure: as §1, §2, §3

CAPAN1 (BRCA2-mutated) = assay: Survival study, Picogreen DNA quantitation
Procedure: (§4) Cells were incubated for a period of time long enough to allow non-treated cells to reach at least a threefold increase in fluorescence as compared to day 1 (3-7 days). Medium was changed every 48 hours. Cells were washed with PBS, and lysed in 100 μL sterile water. After 1 hour, 100 μl 0.5% Picogreen (Molecular Probes, Eugene, Oreg.) in tris-EDTA buffer was added to each well. After 45 minutes, wells were read in a fluorometer. Survival was calculated as a percentage; the wells without drugs were considered as 100 percent. Each experiment was done in duplicate; at least six experiments per cell line per concentration were performed.
(§5) The FA-defective pancreatic cancer cell lines Hs766T (FANCG-mutated), PL11 (FANCC-mutated) and CAPAN1 (BRCA2-mutated) and FA-proficient cell lines Su86.86 and MiaPaCa2 were treated with various concentrations of either MMC or cisplatin, and incubated in 96-well plates. Relative cell numbers were determined by measurement of doublestranded DNA content using Picogreen; wells containing no compound were used as controls. […] The FA-defective cell lines

Hs766T (FANCG-mutated) = assay: Survival study, Picogreen DNA quantitation
Procedure: as §4, §5

PL11 (FANCC-mutated) = assay: Survival study, Picogreen DNA quantitation
Procedure: as §4, §5

FaDu (FA-defective) = assay: Survival study, Picogreen DNA quantitation
CAPAN1 [4] = assay: Survival study, manual (hemacytometer) cell counts; conditions: manual cell counts after 3-4 population doublings (FIG. 3C)
Procedure: (§6) Cell counts: 1×10^5 cells were plated in tissue culture flasks (25 cm^2). The next day, the medium was substituted with MMC-containing medium (range 0-4.5 μM). Cells were counted after 3-4 population doublings (4-7 days) using a hemacytometer. Four experiments per cell line/concentration were done.
(§7) To confirm the results obtained with the Picogreen assay, we also assessed sensitivity to MMC of the cell lines MiaPaCa2, Su86.86, CAPAN1 and Hs766T with manual (hemacytometer) cell counts. This assay confirmed their hypersensitivity to MMC (FIG. 3C). The FA-defective HNSCC cell line FaDu was also hypersensitive to MMC (FIG. 3D), but not to cisplatin (FIG. 3E), as compared to the FA-proficient HNSCC cell lines A-253 and Detroit 562.

Hs766T [5] = assay: Survival study, manual (hemacytometer) cell counts; conditions: manual cell counts after 3-4 population doublings (FIG. 3C)
Procedure: as §6, §7

Su86.86 [6] = assay: Survival study, Picogreen DNA quantitation; conditions: compared to MiaPaCa2, less sensitive than CAPAN1 and PL11
Procedure: as §4, §5

[7] = 3-7 days, compared to MiaPaCa2 and Su86.86 (FIG. 3A)

| Compound | MMC concentration at which cells arrested in G2/M (BxPC3) | MMC concentration at which cells arrested in G2/M (CAPAN1 [1]) | MMC concentration at which cells arrested in G2/M (FaDu) | MMC concentration at which cells arrested in G2/M (Hs766T [2]) | MMC concentration at which cells arrested in G2/M (MiaPaCa2) | MMC concentration at which cells arrested in G2/M (PL11) | MMC concentration at which cells arrested in G2/M (Su86.86 [3]) | Sensitivity to MMC (CAPAN1 (BRCA2-mutated); [7]) | Sensitivity to MMC (Hs766T (FANCG-mutated); [7]) | Sensitivity to MMC (PL11 (FANCC-mutated); [7]) | Sensitivity to MMC (FaDu (FA-defective); compared to A-253 and Detroit 562 (FIG. 3D)) | Sensitivity to MMC (CAPAN1 [4]) | Sensitivity to MMC (Hs766T [5]) | Sensitivity to cisplatin (CAPAN1 (BRCA2-mutated); 3-7 days (FIG. 3B)) | Sensitivity to cisplatin (Hs766T (FANCG-mutated); compared to MiaPaCa2, less sensitive than CAPAN1 and PL11) | Sensitivity to cisplatin (PL11 (FANCC-mutated); 3-7 days (FIG. 3B)) | Sensitivity to cisplatin (Su86.86 [6]) | Hypersensitive to cisplatin (FaDu (FA-defective); compared to A-253 and Detroit 562 (FIG. 3E)) |
| --- | --- | --- | --- | --- | --- | --- | --- | --- | --- | --- | --- | --- | --- | --- | --- | --- | --- | --- |
| CO[C@@]12[C@H](COC(N)=O)C3=C(C(=O)C(C)=C(N)C3=O)N1C[C@@H]1N[C@@H]12 [MMC, mitomycin C] | 2 µM | 200 nM | 500 nM | 100 nM | 2 µM | 100 nM | 2 µM | hypersensitive; also recorded: increased sensitivity | hypersensitive; also recorded: increased sensitivity | hypersensitive; also recorded: increased sensitivity | hypersensitive | hypersensitivity | hypersensitivity | – | – | – | – | – |
| N.N.[Cl][Pt][Cl] [cisplatin] | – | – | – | – | – | – | – | – | – | – | – | – | – | hypersensitive | increased sensitivity | hypersensitive | increased sensitivity | not |
